Consider 21 molecules from patent US8741897B2, “Glucocorticoid mimetics, methods of making them, pharmaceutical compositions and uses thereof” (Boehringer Ingelheim Pharmaceuticals Inc., priority 2003, dated 2014).

Molecules are shown by their SMILES.

This assay concerns glucocorticoid receptor function. Description: one or more of the above assays (GR binding and glucocorticoid receptor cell assays: aromatase, IL-6, TAT, MMTV-Luc, IL-8, ICAM-Luc). It is filed as cell-based. The settings on record: assay not specified per compound. On the procedure:
B. Glucocorticoid Receptor Cell Assays
1. Induction of Aromatase in Fibroblasts (Cell Assay for Transactivation)
Dexamethasone, a synthetic ligand to the glucocorticoid receptor (GR), induces expression of aromatase in human foreskin fibroblast cells. The activity of aromatase is measured by the conversion of testosterone to estradiol in culture media.
On the day of the experiment, the media in the wells is replaced with fresh media. Cells are treated with test compounds to final concentrations of 10^−5 M to 10^−8 M, and testosterone to a final concentration of 300 ng/mL. Each well has a total volume of 100 μL. Samples are made in duplicates. Control wells include: (a) wells that receive testosterone only, and (b) wells that receive testosterone plus 2 μM of dexamethasone to provide maximum induction of aromatase. Plates are incubated at 37° C. overnight (15 to 18 hours), and supernatants are harvested at the end of incubation. […] The amount of estradiol is inversely proportional to the ELISA signals in each well. The extent of aromatase induction by test compounds is expressed as a relative percentage to dexamethasone. EC50 values of test compounds are derived by non-linear curve fitting.
2. Inhibition of IL-6 Production in Fibroblasts (Cell Assay for Transrepression)
Human foreskin fibroblast cells produce IL-6 in response to stimulation by proinflammatory cytokine IL-1.
On the next day, media in the wells is replaced with fresh media. Cells are treated with IL-1 (rhIL-1α, R&D Systems Cat. No. 200-LA) to a final concentration of 1 ng/mL, and with test compounds to final concentrations of 10^−5 M to 10^−8 M, in a total volume of 200 μL per well. Samples are done in duplicates. […] Positive control wells receive IL-1 only and represent maximum (or 100%) amount of IL-6 production. Plates are incubated at 37° C. overnight (15 to 18 hours), and supernatants are harvested at the end of incubation. IL-6 levels in the supernatants are determined by the ELISA kits for IL-6 (MedSystems Diagnostics GmbH, Vienna, Austria, Cat. No. BMS213TEN) according to manufacture's instructions. The extent of inhibition of IL-6 by test compounds is expressed in percentage relative to positive controls. IC50 values of test compounds are derived by non-linear curve fitting.
Evaluation of agonist or antagonist activity of compounds binding to the glucocorticoid receptor may be determined by any of the assays.
3. Modulation of Tyrosine Aminotransferase (TAT) Induction in Rat Hepatoma Cells
Testing of compounds for agonist or antagonist activity in induction of tyrosine aminotransferase (TAT) in rat hepatoma cells.
H4-II-E-C3 cells were incubated overnight in 96 well plates (20,000 cells/100 μL/well) in MEM medium containing 10% heat inactivated FBS and 1% nonessential amino acids. On the next day, cells were stimulated with the indicated concentrations of dexamethasone or test compound (dissolved in DMSO, final DMSO concentration 0.2%) for 18 hours. Control cells were treated with 0.2% DMSO. After 18 hours, the cells were lysed in a buffer containing 0.1% Triton X-100 and the TAT activity was measured in a photometric assay using tyrosine and alpha-ketoglutarate as substrates.
For measuring antagonist activity, the hepatoma cells were pre-stimulated by addition of dexamethasone (concentration ranges from 3×10^−9 M to 3×10^−8 M) shortly before the test compound was applied to the cells.
4. Modulation of MMTV-Luc Induction in HeLa Cells
Testing of compounds for agonist or antagonist activity in stimulation of MMTV-(mouse mammary tumor virus) promoter in HeLa cells.
Cells were cultured overnight in DMEM medium without phenol red, supplemented with 3% CCS (charcoal treated calf serum) and then transferred to 96 well plates (15,000 cells/100 μL/well).

As to `CC(C)(CC(O)(Cc1cc2cc(N3CCOCC3)ncc2[nH]1)C(F)(F)F)c1ccc(F)cc1` (stereo not drawn) [1,1,1-Trifluoro-4-(4-fluorophenyl)-4-methyl-2-(5-morpholin-4-yl-1H-pyrrolo[2,3-c]pyridin-2-ylmethyl)pentan-2-ol], the “activity as agonists of the glucocorticoid receptor function in one or more of the above assays” value (“activity as agonists” for short) is “potent agonists”. With `COc1ccc(-c2ccccc2)cc1C(C)(C)CC(O)(Cc1cc2ccncc2[nH]1)C(F)(F)F` (stereo not drawn) [1,1,1-Trifluoro-4-(4-methoxybiphenyl-3-yl)-4-methyl-2-(1H-pyrrolo[2,3-c]pyridin-2-ylmethyl)pentan-2-ol], the “activity as agonists” value is listed as “potent agonists”. Take `COc1ccc(-c2ccccc2)cc1C(C)(C)CC(O)(Cc1cc2c(C)nccc2[nH]1)C(F)(F)F` (stereo not drawn) [1,1,1-Trifluoro-4-(4-methoxybiphenyl-3-yl)-4-methyl-2-(4-methyl-1H-pyrrolo[3,2-c]pyridin-2-ylmethyl)pentan-2-ol]: the “activity as agonists” value is reported as “potent agonists”.

For the molecule `COc1ccc(-c2ccccc2)cc1C(C)(C)CC(O)(Cc1cc2cc(N3CCCCC3)ncc2[nH]1)C(F)(F)F` (stereo not drawn) [1,1,1-Trifluoro-4-(4-methoxybiphenyl-3-yl)-4-methyl-2-(5-piperidin-1-yl-1H-pyrrolo[2,3-c]pyridin-2-ylmethyl)pentan-2-ol], the “activity as agonists” value was “potent agonists”. Consider `C[S+]([O-])c1ccc2[nH]c(CC(O)(CC(C)(C)c3cc(F)cc4c3OCC4)C(F)(F)F)cc2c1` (stereo not drawn) [1,1,1-Trifluoro-4-(5-fluoro-2,3-dihydrobenzofuran-7-yl)-2-(5-methanesulfinyl-1H-indol-2-ylmethyl)-4-methylpentan-2-ol], for which the “activity as agonists” value was “potent agonists”. On to `CC(C)(CC(O)(Cc1cc2cc(-c3cccnc3)ccc2[nH]1)C(F)(F)F)c1cc(F)cc2c1OCC2` (stereo not drawn) [1,1,1-Trifluoro-4-(5-fluoro-2,3-dihydrobenzofuran-7-yl)-4-methyl-2-(5-pyridin-3-yl-1H-indol-2-ylmethyl)pentan-2-ol], for which the “activity as agonists” value is reported as “potent agonists”.

With `CC(C)(CC(O)(Cc1cc2cc(-c3ccncc3)ccc2[nH]1)C(F)(F)F)c1cc(F)cc2c1OCC2` (stereo not drawn) [1,1,1-Trifluoro-4-(5-fluoro-2,3-dihydrobenzofuran-7-yl)-4-methyl-2-(5-pyridin-4-yl-1H-indol-2-ylmethyl)pentan-2-ol], the “activity as agonists” value is on record as “potent agonists”. With `CC(C)(CC(O)(Cc1cc2ncncc2[nH]1)C(F)(F)F)c1cc(F)cc2c1OCC2` (stereo not drawn) [1,1,1-Trifluoro-4-(5-fluoro-2,3-dihydrobenzofuran-7-yl)-4-methyl-2-(5H-pyrrolo[3,2-d]pyrimidin-6-ylmethyl)pentan-2-ol], the “activity as agonists” value is “potent agonists”. With `COc1ccc(F)cc1C(C)(C)CC(O)(Cc1cc2nc(C(C)C)ncc2[nH]1)C(F)(F)F` (stereo not drawn) [1,1,1-Trifluoro-4-(5-fluoro-2-methoxyphenyl)-2-(2-isopropyl-5H-pyrrolo[3,2-d]pyrimidin-6-ylmethyl)-4-methylpentan-2-ol] the entry was “potent agonists”; with `COc1ccc(F)cc1C(C)(C)CC(O)(Cc1cc2nc(-c3ccccc3)ncc2[nH]1)C(F)(F)F` (stereo not drawn) [1,1,1-Trifluoro-4-(5-fluoro-2-methoxyphenyl)-4-methyl-2-(2-phenyl-5H-pyrrolo[3,2-d]pyrimidin-6-ylmethyl)pentan-2-ol], “potent agonists”; with `COc1ccc(F)cc1C(C)(C)CC(O)(Cc1cc2nc(N3CCCC3)ncc2[nH]1)C(F)(F)F` (stereo not drawn) [1,1,1-Trifluoro-4-(5-fluoro-2-methoxyphenyl)-4-methyl-2-(2-pyrrolidin-1-yl-5H-pyrrolo[3,2-d]pyrimidin-6-ylmethyl)pentan-2-ol], “potent agonists”. As to `COc1ccc(F)cc1C(C)(C)CC(O)(Cc1cc2cc(N3CCOCC3)ncc2[nH]1)C(F)(F)F` (stereo not drawn) [1,1,1-Trifluoro-4-(5-fluoro-2-methoxyphenyl)-4-methyl-2-(5-morpholin-4-yl-1H-pyrrolo[2,3-c]pyridin-2-ylmethyl)pentan-2-ol], the “activity as agonists” value is “potent agonists”.

As for `Cc1ccc(F)cc1C(C)(C)CC(O)(Cc1cc2nnccc2[nH]1)C(F)(F)F` (stereo not drawn) [1,1,1-Trifluoro-4-(5-fluoro-2-methylphenyl)4-methyl-2-(5H-pyrrolo[3,2-c]pyridazin-6-ylmethyl)pentan-2-ol], the “activity as agonists” value is recorded as “potent agonists”. Under `COc1nccc2[nH]c(CC(O)(CC(C)(C)c3cc(F)ccc3C)C(F)(F)F)cc12` (stereo not drawn) [1,1,1-Trifluoro-4-(5-fluoro-2-methylphenyl)-2-(4-methoxy-1H-pyrrolo[3,2-c]pyridin-2-ylmethyl)-4-methylpentan-2-ol] stands “potent agonists”; under `Cc1ccc(F)cc1C(C)(C)CC(O)(Cc1cc2cc(N(C)C(C)C)ncc2[nH]1)C(F)(F)F` (stereo not drawn) [1,1,1-Trifluoro-4-(5-fluoro-2-methylphenyl)-2-[5-(isopropylmethylamino)-1H-pyrrolo[2,3-c]pyridin-2-ylmethyl]-4-methylpentan-2-ol], “potent agonists”; under `Cc1ccc(F)cc1C(C)(C)CC(O)(Cc1cc2nc(-c3ccccc3)ncc2[nH]1)C(F)(F)F` (stereo not drawn) [1,1,1-Trifluoro-4-(5-fluoro-2-methylphenyl)-4-methyl-2-(2-phenyl-5H-pyrrolo[3,2-d]pyrimidin-6-ylmethyl)pentan-2-ol], “potent agonists”.

Take `Cc1ccc(F)cc1C(C)(C)CC(O)(Cc1cc2c(C)cncc2[nH]1)C(F)(F)F` (stereo not drawn) [1,1,1-Trifluoro-4-(5-fluoro-2-methylphenyl)-4-methyl-2-(4-methyl-1H-pyrrolo[2,3-c]pyridin-2-ylmethyl)pentan-2-ol]: the “activity as agonists” value is “potent agonists”.

For `Cc1ccc(F)cc1C(C)(C)CC(O)(Cc1cc2c(C)nccc2[nH]1)C(F)(F)F` (stereo not drawn) [1,1,1-Trifluoro-4-(5-fluoro-2-methylphenyl)-4-methyl-2-(4-methyl-1H-pyrrolo[3,2-c]pyridin-2-ylmethyl)pentan-2-ol], the “activity as agonists” value was “potent agonists”. As to `Cc1ccc(F)cc1C(C)(C)CC(O)(Cc1cc2nc(CN3CCOCC3)ccc2[nH]1)C(F)(F)F` (stereo not drawn) [1,1,1-Trifluoro-4-(5-fluoro-2-methylphenyl)-4-methyl-2-(5-morpholin-4-ylmethyl-1H-pyrrolo[3,2-b]pyridin-2-ylmethyl)pentan-2-ol], the “activity as agonists” value is “potent agonists”. As to `Cc1ccc(F)cc1C(C)(C)CC(O)(Cc1cc2cc(N3CCCC3)ncc2[nH]1)C(F)(F)F` (stereo not drawn) [1,1,1-Trifluoro-4-(5-fluoro-2-methylphenyl)-4-methyl-2-(5-pyrrolidin-1-yl-1H-pyrrolo[2,3-c]pyridin-2-ylmethyl)pentan-2-ol], the “activity as agonists” value was “potent agonists”. Under `CC(C)Oc1cc2cc(CC(O)(CC(C)(C)c3cc(F)ccc3C(F)(F)F)C(F)(F)F)[nH]c2cn1` (stereo not drawn) [1,1,1-Trifluoro-4-(5-fluoro-2-trifluoromethylphenyl)-2-(5-isopropoxy-1H-pyrrolo[2,3-c]pyridin-2-ylmethyl)-4-methylpentan-2-ol] stands “potent agonists”.
